Measurements: PMC5862592, “CDK8/19 inhibition induces premature G1/S transition and ATR-dependent cell death in prostate cancer cells” (Oncotarget, 2018)
Like-named read-outs stand apart in the source and are kept apart here.

Key:
Assay in all cases: biochemical
Design in all cases: KINOMEscan active site-directed competition binding assay (DiscoveRx), 456 kinases, per cent of control at 300 nM
Details in all cases: read-out: Percent of Control (%)
PFCDPK1(P.falciparum) = biological target: T1, PFCDPK1(P.falciparum) (Plasmodium falciparum, UniProt P62344)
T1 construct: gene CDPK1
Summary of the method: (§1)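 Each compound is tested at 300 nmol/L against a panel of 456 kinases. Interaction is quantified by competition for the kinase active site.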

CAMK2B = CAMK2B (Homo sapiens, UniProt Q13554)
Summary of the method: as §1

EPHA3 = EPHA3 (Homo sapiens, UniProt P29320)
Summary of the method: as §1

DAPK1 = DAPK1 (Homo sapiens, UniProt P53355)
Chain of DAPK1 (P53355 whole entry): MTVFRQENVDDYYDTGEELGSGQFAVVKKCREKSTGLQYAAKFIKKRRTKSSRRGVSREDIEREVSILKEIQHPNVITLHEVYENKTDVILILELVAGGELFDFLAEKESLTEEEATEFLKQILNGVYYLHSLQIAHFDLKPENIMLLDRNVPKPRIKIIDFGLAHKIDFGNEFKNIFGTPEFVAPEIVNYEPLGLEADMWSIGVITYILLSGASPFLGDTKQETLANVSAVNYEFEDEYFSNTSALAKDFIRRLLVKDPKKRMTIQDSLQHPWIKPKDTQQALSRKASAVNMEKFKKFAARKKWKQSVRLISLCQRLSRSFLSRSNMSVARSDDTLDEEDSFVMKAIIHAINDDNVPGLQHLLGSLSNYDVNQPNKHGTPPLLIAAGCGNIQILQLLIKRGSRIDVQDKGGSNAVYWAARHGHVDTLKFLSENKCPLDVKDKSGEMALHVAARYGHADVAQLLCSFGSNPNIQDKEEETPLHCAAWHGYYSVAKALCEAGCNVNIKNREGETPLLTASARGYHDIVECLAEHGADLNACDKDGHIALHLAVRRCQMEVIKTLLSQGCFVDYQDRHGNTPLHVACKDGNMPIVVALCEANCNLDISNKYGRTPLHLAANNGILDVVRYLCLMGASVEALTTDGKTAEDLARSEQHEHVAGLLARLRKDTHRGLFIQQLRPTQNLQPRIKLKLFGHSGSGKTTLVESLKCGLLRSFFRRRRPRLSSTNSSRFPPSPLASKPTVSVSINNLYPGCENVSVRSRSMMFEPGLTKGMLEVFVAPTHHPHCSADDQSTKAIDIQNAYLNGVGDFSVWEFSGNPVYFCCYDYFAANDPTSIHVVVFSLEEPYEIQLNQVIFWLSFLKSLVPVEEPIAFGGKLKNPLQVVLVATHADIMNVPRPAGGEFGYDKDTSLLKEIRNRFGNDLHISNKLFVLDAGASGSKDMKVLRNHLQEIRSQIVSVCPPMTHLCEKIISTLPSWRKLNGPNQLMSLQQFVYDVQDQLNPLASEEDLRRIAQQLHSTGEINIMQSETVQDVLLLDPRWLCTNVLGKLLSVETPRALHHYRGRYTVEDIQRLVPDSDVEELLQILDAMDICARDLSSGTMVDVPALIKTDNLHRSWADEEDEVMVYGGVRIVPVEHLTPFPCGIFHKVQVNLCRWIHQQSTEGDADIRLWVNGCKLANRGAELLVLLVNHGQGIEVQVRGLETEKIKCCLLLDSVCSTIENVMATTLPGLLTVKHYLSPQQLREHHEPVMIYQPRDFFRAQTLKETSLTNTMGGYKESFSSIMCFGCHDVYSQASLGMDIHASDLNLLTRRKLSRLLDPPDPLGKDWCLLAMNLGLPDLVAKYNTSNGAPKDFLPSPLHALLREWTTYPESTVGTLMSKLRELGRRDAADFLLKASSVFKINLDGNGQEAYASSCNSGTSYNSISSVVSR
Summary of the method: as §1

ERK8 = biological target: T2, ERK8 (Homo sapiens, UniProt Q8TD08)
T2 construct: gene MAPK15
Summary of the method: as §1

FLT3 = FLT3 (Homo sapiens, UniProt P36888)
Summary of the method: as §1

MAP3K3 = MAP3K3 (Homo sapiens, UniProt Q99759)
Summary of the method: as §1

YSK4 = biological target: T3, YSK4 (Homo sapiens, UniProt Q56UN5)
T3 construct: gene MAP3K19
Summary of the method: as §1

PKNB(M.tuberculosis) = PKNB(M.tuberculosis) (Mycobacterium tuberculosis, UniProt P9WI81)
Summary of the method: as §1

QSK = biological target: T4, QSK (Homo sapiens, UniProt Q9Y2K2)
T4 construct: gene SIK3
Summary of the method: as §1

YANK3 = biological target: T5, YANK3 (Homo sapiens, UniProt Q86UX6)
T5 construct: gene STK32C
Summary of the method: as §1

PIK3C2B = PIK3C2B (Homo sapiens, UniProt O00750)
Summary of the method: as §1

IRAK4 = IRAK4 (Homo sapiens, UniProt Q9NWZ3)
Chain of IRAK4 (Q9NWZ3 whole entry): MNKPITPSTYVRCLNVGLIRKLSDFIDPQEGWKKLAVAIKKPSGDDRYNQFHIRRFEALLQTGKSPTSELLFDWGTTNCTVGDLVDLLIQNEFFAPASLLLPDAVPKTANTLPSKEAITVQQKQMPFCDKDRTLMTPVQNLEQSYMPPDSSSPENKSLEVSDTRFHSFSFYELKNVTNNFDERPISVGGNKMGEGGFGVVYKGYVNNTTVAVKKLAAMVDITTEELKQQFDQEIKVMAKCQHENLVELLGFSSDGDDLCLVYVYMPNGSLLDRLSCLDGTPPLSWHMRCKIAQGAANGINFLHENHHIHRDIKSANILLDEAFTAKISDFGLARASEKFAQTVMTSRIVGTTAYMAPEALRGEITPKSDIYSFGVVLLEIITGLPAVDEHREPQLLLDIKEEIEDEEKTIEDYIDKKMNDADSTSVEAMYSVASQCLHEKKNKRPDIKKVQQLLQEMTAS
Summary of the method: as §1

PIM1 = PIM1 (Homo sapiens, UniProt P11309)
Summary of the method: as §1

PLK4 = PLK4 (Homo sapiens, UniProt O00444)
Summary of the method: as §1

STK36 = STK36 (Homo sapiens, UniProt Q9NRP7)
Chain of STK36 (Q9NRP7 whole entry): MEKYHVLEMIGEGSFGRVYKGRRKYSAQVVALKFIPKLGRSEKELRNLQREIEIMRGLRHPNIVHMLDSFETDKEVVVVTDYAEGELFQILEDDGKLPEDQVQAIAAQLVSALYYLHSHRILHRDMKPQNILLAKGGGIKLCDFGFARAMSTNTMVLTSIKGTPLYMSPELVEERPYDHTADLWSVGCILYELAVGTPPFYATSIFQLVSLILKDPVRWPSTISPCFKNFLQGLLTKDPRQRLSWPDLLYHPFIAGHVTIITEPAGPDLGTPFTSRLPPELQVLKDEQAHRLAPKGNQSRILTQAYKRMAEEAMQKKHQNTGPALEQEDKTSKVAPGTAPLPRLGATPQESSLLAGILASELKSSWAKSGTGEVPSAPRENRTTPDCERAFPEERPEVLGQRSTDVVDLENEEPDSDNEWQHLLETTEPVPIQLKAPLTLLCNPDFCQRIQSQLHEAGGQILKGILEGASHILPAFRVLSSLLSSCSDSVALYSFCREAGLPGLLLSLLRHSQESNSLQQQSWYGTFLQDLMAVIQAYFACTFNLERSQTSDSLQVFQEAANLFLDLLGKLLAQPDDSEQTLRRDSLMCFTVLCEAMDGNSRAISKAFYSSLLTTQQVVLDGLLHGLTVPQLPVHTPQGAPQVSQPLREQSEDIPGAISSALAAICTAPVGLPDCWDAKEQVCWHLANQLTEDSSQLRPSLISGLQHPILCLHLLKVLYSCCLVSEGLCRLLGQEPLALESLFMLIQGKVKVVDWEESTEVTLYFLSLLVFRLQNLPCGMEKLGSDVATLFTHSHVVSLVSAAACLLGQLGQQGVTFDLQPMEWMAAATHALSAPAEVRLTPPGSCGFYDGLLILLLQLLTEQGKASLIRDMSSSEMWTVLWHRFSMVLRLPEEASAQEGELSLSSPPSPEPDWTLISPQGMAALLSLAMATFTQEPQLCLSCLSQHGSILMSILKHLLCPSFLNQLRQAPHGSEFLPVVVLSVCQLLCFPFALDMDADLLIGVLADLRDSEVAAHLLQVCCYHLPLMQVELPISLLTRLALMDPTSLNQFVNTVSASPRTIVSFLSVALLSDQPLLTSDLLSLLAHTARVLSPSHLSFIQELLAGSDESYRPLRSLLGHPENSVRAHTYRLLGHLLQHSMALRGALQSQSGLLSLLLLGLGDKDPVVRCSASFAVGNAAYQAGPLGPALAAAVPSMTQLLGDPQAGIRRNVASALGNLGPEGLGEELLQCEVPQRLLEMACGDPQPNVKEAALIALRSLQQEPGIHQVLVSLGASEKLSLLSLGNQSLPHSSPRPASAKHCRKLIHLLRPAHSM
Summary of the method: as §1

IKK-alpha = biological target: T6, IKK-alpha (Homo sapiens, UniProt O15111)
T6 construct: gene CHUK
T6 sequence (O15111 whole entry): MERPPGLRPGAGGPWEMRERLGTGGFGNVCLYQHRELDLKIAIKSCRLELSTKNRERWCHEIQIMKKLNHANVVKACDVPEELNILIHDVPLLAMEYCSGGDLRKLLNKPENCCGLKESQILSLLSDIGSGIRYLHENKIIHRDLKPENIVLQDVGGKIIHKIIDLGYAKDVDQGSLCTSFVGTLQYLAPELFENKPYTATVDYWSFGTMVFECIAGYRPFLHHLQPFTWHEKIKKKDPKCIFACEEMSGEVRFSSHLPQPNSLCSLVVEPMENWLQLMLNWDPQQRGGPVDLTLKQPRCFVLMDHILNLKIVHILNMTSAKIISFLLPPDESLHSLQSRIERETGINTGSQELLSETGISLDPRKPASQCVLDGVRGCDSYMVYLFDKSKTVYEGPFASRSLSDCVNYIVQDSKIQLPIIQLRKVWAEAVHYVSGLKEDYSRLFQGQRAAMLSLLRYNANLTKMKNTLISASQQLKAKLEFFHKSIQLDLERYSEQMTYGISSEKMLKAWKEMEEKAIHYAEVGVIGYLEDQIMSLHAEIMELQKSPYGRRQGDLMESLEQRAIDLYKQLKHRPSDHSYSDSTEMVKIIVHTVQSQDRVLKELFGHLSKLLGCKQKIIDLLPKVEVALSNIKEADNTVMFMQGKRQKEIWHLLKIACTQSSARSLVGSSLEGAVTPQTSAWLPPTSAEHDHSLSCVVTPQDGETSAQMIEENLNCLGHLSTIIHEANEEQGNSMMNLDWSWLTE
Summary of the method: as §1

NDR2 = biological target: T7, NDR2 (Homo sapiens, UniProt Q9Y2H1)
T7 construct: gene STK38L
Summary of the method: as §1

MEK3 = biological target: T8, MEK3 (Homo sapiens, UniProt P46734)
T8 construct: gene MAP2K3
Summary of the method: as §1

[1] = biological target: T9, ABL1(E255K)-phosphorylated (Homo sapiens, UniProt P00519, E255K)
T9 construct: phosphorylated
Summary of the method: as §1

BMPR1A = BMPR1A (Homo sapiens, UniProt P36894)
Summary of the method: as §1

[2] = biological target: T10, JAK1(JH2domain-pseudokinase) (Homo sapiens, UniProt P23458)
T10 construct: JH2domain-pseudokinase
T10 sequence (P23458 whole entry): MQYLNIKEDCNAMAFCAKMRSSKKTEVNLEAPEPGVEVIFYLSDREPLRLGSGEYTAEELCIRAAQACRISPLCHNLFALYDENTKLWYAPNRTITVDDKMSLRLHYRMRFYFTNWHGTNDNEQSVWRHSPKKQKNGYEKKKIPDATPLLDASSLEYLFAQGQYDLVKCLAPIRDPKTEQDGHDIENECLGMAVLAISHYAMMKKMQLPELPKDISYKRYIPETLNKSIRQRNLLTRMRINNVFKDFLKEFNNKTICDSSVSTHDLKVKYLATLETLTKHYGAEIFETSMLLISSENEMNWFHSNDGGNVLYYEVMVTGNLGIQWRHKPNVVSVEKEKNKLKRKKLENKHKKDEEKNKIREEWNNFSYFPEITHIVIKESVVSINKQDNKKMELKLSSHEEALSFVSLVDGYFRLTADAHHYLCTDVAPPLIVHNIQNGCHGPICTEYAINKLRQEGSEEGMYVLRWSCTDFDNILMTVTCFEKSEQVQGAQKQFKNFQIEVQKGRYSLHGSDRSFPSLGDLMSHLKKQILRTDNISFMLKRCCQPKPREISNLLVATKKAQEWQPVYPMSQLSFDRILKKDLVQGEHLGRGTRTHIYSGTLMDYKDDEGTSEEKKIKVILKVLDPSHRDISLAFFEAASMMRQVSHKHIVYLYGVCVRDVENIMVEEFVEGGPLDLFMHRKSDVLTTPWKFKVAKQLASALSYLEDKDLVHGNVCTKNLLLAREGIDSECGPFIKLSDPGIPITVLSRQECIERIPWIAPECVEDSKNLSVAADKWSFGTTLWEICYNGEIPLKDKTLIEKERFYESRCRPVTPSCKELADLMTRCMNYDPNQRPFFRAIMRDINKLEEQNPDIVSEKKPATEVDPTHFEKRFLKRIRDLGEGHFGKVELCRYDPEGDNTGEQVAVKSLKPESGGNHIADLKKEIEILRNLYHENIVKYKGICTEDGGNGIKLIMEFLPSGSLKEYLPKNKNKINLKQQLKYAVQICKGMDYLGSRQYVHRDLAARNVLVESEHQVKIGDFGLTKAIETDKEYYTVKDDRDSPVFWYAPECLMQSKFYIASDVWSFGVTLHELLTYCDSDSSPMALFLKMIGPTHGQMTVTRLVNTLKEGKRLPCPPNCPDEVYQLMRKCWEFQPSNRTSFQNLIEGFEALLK
Summary of the method: as §1

## Cc1ncccc1Oc1sc(C(N)=O)c2c1-c1c(cnn1C)CC2 [T-474, 1-methyl-8-((2-methylpyridin-3-yl)oxy)-4,5-dihydro-1H-thieno[3,4-g]indazole-6-carboxamide]
PFCDPK1(P.falciparum)
  remaining binding at 0.3 µM: 100%
CAMK2B
  remaining binding at 0.3 µM: 99%
EPHA3
  remaining binding at 0.3 µM: 100%
DAPK1
  remaining binding at 0.3 µM: 100%
ERK8
  remaining binding at 0.3 µM: 88%
FLT3
  remaining binding at 0.3 µM: 100%
MAP3K3
  remaining binding at 0.3 µM: 100%
YSK4
  remaining binding at 0.3 µM: 100%
PKNB(M.tuberculosis)
  remaining binding at 0.3 µM: 75%
QSK
  remaining binding at 0.3 µM: 93%
YANK3
  remaining binding at 0.3 µM: 100%
PIK3C2B
  remaining binding at 0.3 µM: 86%
IRAK4
  remaining binding at 0.3 µM: 100%
PIM1
  remaining binding at 0.3 µM: 92%
PLK4
  remaining binding at 0.3 µM: 86%
STK36
  remaining binding at 0.3 µM: 100%
IKK-alpha
  remaining binding at 0.3 µM: 100%
NDR2
  remaining binding at 0.3 µM: 100%
MEK3
  remaining binding at 0.3 µM: 100%
[1]
  remaining binding at 0.3 µM: 83%
BMPR1A
  remaining binding at 0.3 µM: 100%
[2]
  remaining binding at 0.3 µM: 100%

## O=C(/C=C/c1cnccc1-c1ccc(F)cc1)Nc1ccc(CCc2nnco2)cc1 [T-418, (2E)-3-(4-(4-fluorophenyl)pyridin-3-yl)-N-(4-(2-(1,3,4-oxadiazol-2-yl)ethyl)phenyl)acrylamide]
PFCDPK1(P.falciparum); sheet T-418
  remaining binding at 0.3 µM: 100%
CAMK2B; sheet T-418
  remaining binding at 0.3 µM: 84%
EPHA3; sheet T-418
  remaining binding at 0.3 µM: 100%
DAPK1; sheet T-418
  remaining binding at 0.3 µM: 100%
ERK8; sheet T-418
  remaining binding at 0.3 µM: 94%
FLT3; sheet T-418
  remaining binding at 0.3 µM: 66%
MAP3K3; sheet T-418
  remaining binding at 0.3 µM: 94%
YSK4; sheet T-418
  remaining binding at 0.3 µM: 100%
PKNB(M.tuberculosis); sheet T-418
  remaining binding at 0.3 µM: 84%
QSK; sheet T-418
  remaining binding at 0.3 µM: 95%
YANK3; sheet T-418
  remaining binding at 0.3 µM: 100%
PIK3C2B; sheet T-418
  remaining binding at 0.3 µM: 88%
IRAK4; sheet T-418
  remaining binding at 0.3 µM: 100%
PIM1; sheet T-418
  remaining binding at 0.3 µM: 75%
PLK4; sheet T-418
  remaining binding at 0.3 µM: 78%
STK36; sheet T-418
  remaining binding at 0.3 µM: 100%
IKK-alpha; sheet T-418
  remaining binding at 0.3 µM: 100%
NDR2; sheet T-418
  remaining binding at 0.3 µM: 100%
MEK3; sheet T-418
  remaining binding at 0.3 µM: 100%
[1]; sheet T-418
  remaining binding at 0.3 µM: 83%
BMPR1A; sheet T-418
  remaining binding at 0.3 µM: 79%
[2]; sheet T-418
  remaining binding at 0.3 µM: 100%
